# Measured values published in patent US20250313828A1, “SYNTHETIC GENETIC PLATFORM IN EUKARYOTE CELLS AND METHODS OF USE” (University of Washington, priority 2022, published 2025).
# “Also recorded” adds a separate entry of the source.
# Legend:
# [1] = tested on: auxin promoter::Venus; assay: Repression activity of H1 helices fused to IAA3 in the AtARCSc, fluorescence flow cytometry; type: cell-based, Saccharomyces cerevisiae; conditions: for Repression activity of H1-HA-IAA3 library constructs: H1-HA-IAA3 expressed off a plasmid, static ARC components integrated at URA3
# [2] = type: cell-based, Saccharomyces cerevisiae
# Protocol: Western Blot. […] Cells were harvested by centrifugation. Cells were lysed by vortexing for 5 min in the presence of 200 μl of 0.5-mm diameter acid washed glass beads and 200 μl SUMEB buffer (1% SDS, 8 M urea, 10 mM MOPS pH 6.8, 10 mM EDTA, 0.01% bromophenol blue, 1 mM PMSF) per one OD unit of original culture. Lysates were then incubated at 65° C. for 10 min and cleared by centrifugation prior to electrophoresis and blotting. Antibodies: anti-HA-HRP (REF-12013819001, Clone 3F10, Roche/Millipore Sigma, St. Louis, MO), anti-PGK1 (ab113687, AbCam). Protein concentrations were quantified using ImageJ, with PGK1 protein measured in each strain to normalize protein concentrations across strains. To compare protein concentrations to […]1, these were then normalized to TPL concentration using this equation: ([[…]1 normalized protein concentrations were plotted on a Log 2 scale.
# [3] = target: T1, H1 sequence of TBL1 (Homo sapiens, UniProt O60907); assay: Small molecule testing on the yeast H1 platform, TBL1 helix fused to IAA3; type: cell-based; conditions: yeast cultured 4 hours with compound, flow cytometry, absence of Beta-catenin
# T1 construct: expressed in transfected cells; host or cells: Saccharomyces cerevisiae reporter strain (AFB2, ARF19 and auxin promoter::Venus integrated at URA3)
# Protocol: (§1) Yeast were grown overnight from a dilution of […] at 30° C. and 250 rpm. When cell density reached […] either control (DMSO) or small molecule BC2059 were added at the indicated concentration, and cultured for 4 hours before being measured for fluorescence by flow cytometry. Each data point represents three independent time-course flow cytometry experiments of the helices indicated, all fused to IAA3. Every point represents the average fluorescence of at least 10,000 individually measured yeast cells (a.u.: arbitrary units). Error bars are standard error.
# [4] = target: T2, TPL sequence (Arabidopsis thaliana, UniProt Q94AI7); assay: Small molecule testing on the yeast H1 platform, TPL helix fused to IAA3; type: cell-based; conditions: yeast cultured 4 hours with compound, flow cytometry
# T2 construct: a construct carrying only the first 18 amino acids of Helix 1 of the LisH domain fused to IAA3; expressed in transfected cells; host or cells: Saccharomyces cerevisiae reporter strain (AFB2, ARF19 and auxin promoter::Venus integrated at URA3)
# Protocol: as §1
# [5] = tested on: mutant TBL1 H1 sequence; assay: Cancer variant detection using the yeast H1 platform; type: cell-based, Homo sapiens (Human); conditions: 500 nM, 4 hours, compared with wild type TBL1 H1
# Protocol: as §1, with “of the TBL1 or control helices indicated,” for “of the helices indicated,”
# Yeast carrying either the wild type or mutant TBL1 H1 sequence were cultured in the presence or absence of 500 nM Tegatrabetan and fluorescence measured by flow cytometry. […] This approach is particularly relevant to personalized medicine for a given mutation in a patient.
# [6] = tested on: synthetic auxin reporter DR5-Venus; assay: H1 repression assay, transient transformation in tobacco leaves; type: in vivo, Nicotiana benthamiana; conditions: transient expression in tobacco, IAA3 EAR motif mutated to AxAxA
# Protocol: Reporter activation was measured in four separate leaf injections (biological replicates) in two days of injection (boxplots illustrated in FIG. 5C are pooled data from one day, with two replicates divided on right and left panels). Each leaf was excised at 8 locations and measured for Venus fluorescence using a plate scanner. pDR5:Venus: the synthetic DR5 auxin promoter (Ulmasov et al., Plant Cell 9, 1963-1971, 1997) driving Venus; ARF19: […]; […] Plant growth. […] Strain density was normalized to an OD600 of 1 for each strain in the final mixture of strains before injection into tobacco leaves. Leaves were removed, and eight different regions were excised using a hole punch, placed into a 96-well microtiter plate with 100 μl of water. Each leaf punch was scanned in a 4×4 grid for yellow and red fluorescence using a plate scanner (Tecan Spark, Tecan Trading AG, Switzerland). Fluorescence data was quantified and plotted in R (ggplots2).
compound,measurement,setting,value
"1853M: cancer variant H1 KELLLLMRNHLIS, SEQ ID NO: 85",Repression activity of H1-HA-IAA3 library constructs,[1],slightly decrease
same,Protein accumulation / stability,[2],slightly increasing protein accumulation
"C[C@@H]1C[C@H](C)CN(S(=O)(=O)c2ccc3c(c2)C(=NO)c2cc(S(=O)(=O)N4C[C@H](C)C[C@H](C)C4)ccc2C3=NO)C1 [BC2059, Tegavivint]",Effect on TBL1's repressive activity on transcription,[3],dose-dependent interference
same,Effect on TPL H1 repression,[4],unaffected
same,Responsiveness of TBL1 H1 cancer variant mutations to the compound,[5],Certain cancer mutants were less sensitive to treatment
"DmGID8: H1 tested in tobacco; probably H1-DmDMEI, ADLNRLVMNYLVT, SEQ ID NO: 38 (listed as Drosophila sechellia)",Repression of reporter in planta,[6],not functional
"F10A: TPL H1 mutant RELVALILQFLDE, SEQ ID NO: 121",Repression of reporter in planta,[6],improvements in repression in tobacco compared to wild type
same,Time course flow cytometry following auxin addition (de-repression),"[1]; AtARCSc in yeast, auxin (IAA-10 μM) added","strengthened the durability of repression H1, converting it into an auxin-insensitive repression domain; also recorded: loss of auxin sensitivity"
"H856Y: cancer variant H1 KELLLLIRNYLIS, SEQ ID NO: 87",Repression activity of H1-HA-IAA3 library constructs,[1],not significantly affected
same,Protein accumulation / stability,[2],not significantly affected
"HsLIS1: H1 sequence DELNRAIADYLRS, SEQ ID NO: 63 (listed as Homo sapiens)",Repression activity of H1-HA-IAA3 library constructs,[1],repressive
same,Protein accumulation / stability,[2],well expressed
"HsTBL1X Y64C: cancer variant H1 DEVNFLVCRYLQE, SEQ ID NO: 81",Repression activity of H1-HA-IAA3 library constructs,[1],strongest repressor
same,Protein accumulation / stability,[2],highest accumulation
"L851F: cancer variant H1 KELLFLIRNHLIS, SEQ ID NO: 84",Repression activity of H1-HA-IAA3 library constructs,[1],dramatically reduces
same,Protein accumulation / stability,[2],dramatically reduces
"PfGID8: H1 tested in tobacco; perhaps H1-BCR36DRAFT, KDLNKLIMNYLVI, SEQ ID NO: 36 (listed as Chytriomyces confervae)",Repression of reporter in planta,[6],less
"R6E: TPL H1 mutant EELVFLILQFLDE, SEQ ID NO: 91",Repression activity of H1-HA-IAA3 library constructs,[1],loss of repression
same,Protein accumulation / stability,[2],negative effect on protein accumulation
"R6N: TPL H1 mutant NELVFLILQFLDE, SEQ ID NO: 94",Repression activity of H1-HA-IAA3 library constructs,[1],loss of repression
same,Protein accumulation / stability,[2],negative effect on protein accumulation
"R6V: TPL H1 mutant VELVFLILQFLDE, SEQ ID NO: 106",Repression activity of H1-HA-IAA3 library constructs,[1],loss of repression
same,Protein accumulation / stability,[2],negative effect on protein accumulation
"R14W: cancer variant H1 DEVNFLVYWYLQE, SEQ ID NO: 83",Repression activity of H1-HA-IAA3 library constructs,[1],higher repression rates
same,Protein accumulation / stability,[2],reductions in protein abundance
"R65Q: cancer variant H1 DEVNFLVYQYLQE, SEQ ID NO: 82",Repression activity of H1-HA-IAA3 library constructs,[1],higher repression rates
same,Protein accumulation / stability,[2],reductions in protein abundance
"R854Q: cancer variant H1 KELLLLIQNHLIS, SEQ ID NO: 86",Repression activity of H1-HA-IAA3 library constructs,[1],increase
same,Protein accumulation / stability,[2],slightly increasing protein accumulation
"SpHIF2: H1 sequence NQVNYIIWRYLKE, SEQ ID NO: 17 (Schizosaccharomyces pombe)",Repression activity of H1-HA-IAA3 library constructs,[1],not detected
same,Protein accumulation / stability,[2],very poor protein stability
